Measured values taken from PMC11903690 (Scientific Reports, 2025).

Experiments:
[1] = test system: SARS-CoV-2 (WK-521, ancestral strain); assay: SARS-CoV-2 inhibition MTT assay in Vero E6/TMPRSS2 cells; format: cell-based; conditions: for EC50: Severe acute respiratory syndrome coronavirus 2, VeroE6/TMPRSS2; for Selectivity index: between EC50 and CC50, WK-521, Vero E6/TMPRSS2 cells
[2] = in vitro; conditions: African green monkey
[3] = test system: high fat diet-induced obesity mice models; conditions: oral intake; cited from earlier work
[4] = test system: sphingomyelin on the plasma membrane in Vero E6 cells; format: cell-based; conditions: 5 μM, 30 min, versus control (DMSO)
[5] = test system: SARS-CoV-2 mediated cell-to-cell fusion; format: cell-based; conditions: 0.8 to 25 μM; 24 h

| Compound | EC50 [1] | CC50 [2] | Selectivity index [1] | efficacies in high fat diet-induced obesity mice [3] | fluorescence intensity of EGFP-NT-Lys on the plasma membrane (clustered SM) [4] | fluorescence intensity of EqtII-EGFP (dispersed SM) [4] | inhibition of cell fusion (yellow hypertrophic cells) [5] |
| --- | --- | --- | --- | --- | --- | --- | --- |
| CCCCCC/C=C\CCCCCCCc1cccc(O)c1C(=O)O [Ginkgolic acid] | 7.9 µM | – | – | – | – | – | – |
| CCC(CC)COC(=O)[C@H](C)N[P@](=O)(OC[C@H]1O[C@@](C#N)(c2ccc3c(N)ncnn23)[C@H](O)[C@@H]1O)Oc1ccccc1 [Remdesivir] | 0.5 µM | > 10 µM | – | – | – | – | – |
| O=C(CCCCCCCCc1ccc(O)c(O)c1)c1c(O)cccc1O [Compound 1, Malabaricone C] | 1.5 µM | 14 µM | 9.7 | reducing weight gain, improving glucose tolerance, and reducing hepatic steatosis | lower than that of the control | almost no difference | increased in a dose-dependent manner |
| CC(C)C(=O)OC[C@H]1O[C@@H](n2ccc(NO)nc2=O)[C@H](O)[C@@H]1O [Molnupiravir] | 0.15 µM | 5.3 µM | 33.8 | – | – | – | – |
